Source: US12180193B2, “Accelerating fibrosarcoma protein degrading compounds and associated methods of use” (Arvinas Operations, Inc., priority 2020, dated 2024)
Like-named read-outs stand apart in the source and are kept apart here.

Experiments:
[1] = target: T1, BRAF V600E (Homo sapiens, UniProt P15056, V600E); assay: Cellular assay of target protein degradation, T-Rex 293 cells stably transfected with HA-BRAF_V600E (HA immunofluorescence, high content imaging); assay type: cell-based
T1 construct: expressed in transfected cells
In short: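 Cells are plated with 1 ng/mL doxycycline and grown 24 h. Compound is then added (final 1 μM–0.1 nM, 0.1% DMSO) for another 24 h at 37 °C, followed by fixing, HA immunostaining and imaging to obtain DC50 and Dmax.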

[2] = target: T2, BRAF G466V (Homo sapiens, UniProt P15056, G466V); assay: Cellular assay of target protein degradation, T-Rex 293 cells stably transfected with HA-BRAF G466V (HA immunofluorescence, high content imaging); assay type: cell-based
T2 construct: expressed in transfected cells
In short: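 Read-out is HA immunofluorescence by high content imaging, with Hoechst and phalloidin co-staining, giving DC50 and Dmax as a percentage of control. Compound exposure lasts 24 hours at 37° C over 30 nM to 3 pM in 0.1% DMSO, with doxycycline-induced HA-BRAF G466V.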

[3] = half maximal degradation, T-Rex 293 HA-BRAF V600E; read-out: BRaf V600E DC50
[4] = half maximal degradation, T-Rex 293 HA-BRAF G466V; read-out: BRaf G466V DC50
[5] = maximum degradation observed, T-Rex 293 HA-BRAF G466V
[6] = maximum degradation observed, T-Rex 293 HA-BRAF V600E

T1 sequence (P15056 whole entry V600E): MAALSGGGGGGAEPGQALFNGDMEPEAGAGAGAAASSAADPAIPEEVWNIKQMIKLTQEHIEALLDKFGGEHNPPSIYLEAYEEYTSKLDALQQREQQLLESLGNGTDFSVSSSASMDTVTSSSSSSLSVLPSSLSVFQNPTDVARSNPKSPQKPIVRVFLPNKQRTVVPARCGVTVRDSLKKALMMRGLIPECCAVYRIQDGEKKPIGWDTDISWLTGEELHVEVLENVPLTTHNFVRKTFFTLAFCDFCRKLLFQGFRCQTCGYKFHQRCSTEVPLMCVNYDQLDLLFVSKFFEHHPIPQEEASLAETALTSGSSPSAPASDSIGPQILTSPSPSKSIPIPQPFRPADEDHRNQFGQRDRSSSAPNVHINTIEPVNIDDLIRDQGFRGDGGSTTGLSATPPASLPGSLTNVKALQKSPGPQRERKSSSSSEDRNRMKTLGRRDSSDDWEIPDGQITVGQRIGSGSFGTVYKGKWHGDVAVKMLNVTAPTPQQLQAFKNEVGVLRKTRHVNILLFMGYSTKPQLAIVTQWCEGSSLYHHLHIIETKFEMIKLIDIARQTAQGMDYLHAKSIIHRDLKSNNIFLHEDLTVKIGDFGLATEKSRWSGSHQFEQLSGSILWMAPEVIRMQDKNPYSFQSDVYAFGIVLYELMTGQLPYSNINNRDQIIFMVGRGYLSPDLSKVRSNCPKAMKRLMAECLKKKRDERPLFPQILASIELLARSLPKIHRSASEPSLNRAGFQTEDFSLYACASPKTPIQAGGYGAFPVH
T2 sequence (P15056 whole entry G466V): as the sequence (P15056 whole entry V600E) above, with G466V, E600V counted along it

SMILES | DC50 [1, 3] | DC50 [2, 4] | Dmax [2, 5] | Dmax [1, 6] | DC50 ([1]; read-out: BRaf V600E DC50; half maximal degradation, T-Rex 293 HA-BRAF V600E) | DC50 ([2]; read-out: BRaf G466V DC50; half maximal degradation, T-Rex 293 HA-BRAF G466V)
O=C1CCC(N2Cc3cc(N4CCC(N5CCCC56CN(c5ccc(-c7cnc8[nH]cc(C(=O)c9c(F)ccc(NS(=O)(=O)N%10CC[C@@H](F)C%10)c9F)c8c7)cc5)C6)CC4)ccc3C2=O)C(=O)N1 (stereo partly drawn) [Compound 66, (3R)-N-(3-{5-[4-(5-{1-[2-(2,6-dioxopiperidin-3-yl)-1-oxo-2,3-dihydro-1H-isoindol-5-yl]piperidin-4-yl}-2,5-diazaspiro[3.4]octan-2-yl)phenyl]-1H-pyrrolo[2,3-b]pyridine-3-carbonyl}-2,4-difluorophenyl)-3-fluoropyrrolidine-1-sulfonamide] | > 500 nM | 10 to 30 nM | > 70% | – | – | –
O=C1CCC(N2Cc3cc(CN4CCN(c5ccc(-c6cnc7[nH]cc(C(=O)c8c(F)ccc(NS(=O)(=O)N9CC[C@@H](F)C9)c8F)c7c6)cc5)C[C@H]4CO)ccc3C2=O)C(=O)N1 (stereo partly drawn) [Compound 112, (3R)-N-[3-(5-{4-[(3S)-4-{[2-(2,6-dioxopiperidin-3-yl)-1-oxo-2,3-dihydro-1H-isoindol-5-yl]methyl}-3-(hydroxymethyl)piperazin-1-yl]phenyl}-1H-pyrrolo [2,3-b]pyridine-3-carbonyl)-2,4-difluorophenyl]-3-fluoropyrrolidine-1-sulfonamide] | 50 to 500 nM | 10 to 30 nM | 35 to 70% | < 35% | – | –
O=C1CCC(N2Cc3cc(N4CCN(C[C@H](O)Cc5ccc(-c6cnc7[nH]cc(C(=O)c8c(F)ccc(NS(=O)(=O)N9CC[C@@H](F)C9)c8F)c7c6)cc5)CC4)ccc3C2=O)C(=O)N1 (stereo partly drawn) [Compound 90, (3R)—N-[3-[5-[4-[(2R)-3-[4-[2-(2,6-dioxo-3-piperidyl)-1-oxo-isoindolin-5-yl]piperazin-1-yl]-2-hydroxy-propyl]phenyl]-1H-pyrrolo[2,3-b]pyridine-3-carbonyl]-2,4-difluoro-phenyl]-3-fluoro-pyrrolidine-1-sulfonamide] | 5 to 50 nM | 1 to 10 nM | 35 to 70% | 35 to 70% | – | –
C[C@@H]1CN(c2ccc(-c3cnc4[nH]cc(C(=O)c5c(F)ccc(NS(=O)(=O)N6CC[C@@H](F)C6)c5F)c4c3)cc2)C[C@H](C)N1CC1CN(c2ccc3c(c2)CN(C2CCC(=O)NC2=O)C3=O)C1 (stereo partly drawn) [Compound 53, (3R)-N-[3-(5-{4-[(3R,5S)-4-({1-[2-(2,6-dioxopiperidin-3-yl)-1-oxo-2,3-dihydro-1H-isoindol-5-yl]azetidin-3-yl}methyl)-3,5-dimethylpiperazin-1-yl]phenyl}-1H-pyrrolo[2,3-b]pyridine-3-carbonyl)-2,4-difluorophenyl]-3-fluoropyrrolidine-1-sulfonamide] | 5 to 50 nM | < 1 nM | > 70% | 35 to 70% | – | –
CN(CCN1CCN(c2ccc(-c3cnc4[nH]cc(C(=O)c5c(F)ccc(NS(=O)(=O)N6CC[C@@H](F)C6)c5F)c4c3)cc2)CC1)[C@H]1C[C@@H](Oc2ccc3c(c2)CN(C2CCC(=O)NC2=O)C3=O)C1 (stereo partly drawn) [Compound 126, (3R)-N-[2,4-difluoro-3-(5-{4-[4-(2-{methyl[(1s,3s)-3-{[2-(2,6-dioxopiperidin-3-yl)-1-oxo-2,3-dihydro-1H-isoindol-5-yl]oxy}cyclobutyl]amino}ethyl)piperazin-1-yl]phenyl}-1H-pyrrolo[2,3-b]pyridine-3-carbonyl)phenyl]-3-fluoropyrrolidine-1-sulfonamide] | 5 to 50 nM | 1 to 10 nM | 35 to 70% | 35 to 70% | – | –
O=C1CC[C@H](N2Cc3cc(C4CN(CC5CC6(C5)CN(c5ccc(-c7cnc8[nH]cc(C(=O)c9c(F)ccc(NS(=O)(=O)N%10CC[C@@H](F)C%10)c9F)c8c7)cc5)C6)C4)ccc3C2=O)C(=O)N1 [Compound 99, (3R)-N-{3-[5-(4-{6-[(3-{2-[(3S)-2,6-dioxopiperidin-3-yl]-1-oxo-2,3-dihydro-1H-isoindol-5-yl}azetidin-1-yl)methyl]-2-azaspiro[3.3]heptan-2-yl}phenyl)-1H-pyrrolo[2,3-b]pyridine-3-carbonyl]-2,4-difluorophenyl}-3-fluoropyrrolidine-1-sulfonamide] | 5 to 50 nM | 1 to 10 nM | > 70% | 35 to 70% | – | –
O=C1CCC(N2Cc3cc(C4CCN(CC5CC6(C5)CN(c5ccc(-c7cnc8[nH]cc(C(=O)c9c(F)ccc(NS(=O)(=O)N%10CC[C@@H](F)C%10)c9F)c8c7)cc5F)C6)CC4)ccc3C2=O)C(=O)N1 (stereo partly drawn) [Compound 319, (3R)-N-[3-(5-{4-[6-({4-[2-(2,6-dioxopiperidin-3-yl)-1-oxo-2,3-dihydro-1H-isoindol-5-yl]piperidin-1-yl}methyl)-2-azaspiro[3.3]heptan-2-yl]-3-fluorophenyl}-1H-pyrrolo[2,3-b]pyridine-3-carbonyl)-2,4-difluorophenyl]-3-fluoropyrrolidine-1-sulfonamide] | – | – | > 70% | 35 to 70% | 5 to 50 nM | 1 to 10 nM

Further lines, with some results ahead:

DC50 [1, 3] | DC50 [2, 4] | Dmax [2, 5] | Dmax [1, 6] | SMILES | DC50 ([1]; read-out: BRaf V600E DC50; half maximal degradation, T-Rex 293 HA-BRAF V600E) | DC50 ([2]; read-out: BRaf G466V DC50; half maximal degradation, T-Rex 293 HA-BRAF G466V)
5 to 50 nM | 1 to 10 nM | > 70% | 35 to 70% | O=C1CC[C@@H](N2Cc3cc(N4CC5(CN(CC6CCN(c7ccc(-c8cnc9[nH]cc(C(=O)c%10c(F)ccc(NS(=O)(=O)N%11CC[C@@H](F)C%11)c%10F)c9c8)cc7)CC6)C5)C4)ccc3C2=O)C(=O)N1 [Compound 222, (3R)-N-{3-[5-(4-{4-[(6-{2-[(3R)-2,6-dioxopiperidin-3-yl]-1-oxo-2,3-dihydro-1H-isoindol-5-yl}-2,6-diazaspiro[3.3]heptan-2-yl)methyl]piperidin-1-yl}phenyl)-1H-pyrrolo[2,3-b]pyridine-3-carbonyl]-2,4-difluorophenyl}-3-fluoropyrrolidine-1-sulfonamide] | – | –
< 5 nM | < 1 nM | 35 to 70% | 35 to 70% | CCc1c(NS(=O)(=O)N2CC[C@@H](F)C2)ccc(F)c1C(=O)c1c[nH]c2ncc(-c3ccc(N4CCC(CN5CCC(c6ccc7c(c6)CN([C@H]6CCC(=O)NC6=O)C7=O)CC5)CC4)cc3)cc12 [Compound 203, (3R)—N-{3-[5-(4-{4-[(4-{2-[(3S)-2,6-dioxopiperidin-3-yl]-1-oxo-2,3-dihydro-1H-isoindol-5-yl}piperidin-1-yl)methyl]piperidin-1-yl}phenyl)-1H-pyrrolo[2,3-b]pyridine-3-carbonyl]-2-ethyl-4-fluorophenyl}-3-fluoropyrrolidine-1-sulfonamide] | – | –
50 to 500 nM | 1 to 10 nM | > 70% | > 70% | O=C1CCC(N2Cc3cc(C4CCN(C[C@@H]5CCN(c6ccc(-c7cnc8[nH]cc(C(=O)c9c(F)ccc(NS(=O)(=O)N%10CC[C@@H](F)C%10)c9F)c8c7)cc6)C(=O)C5)CC4)ccc3C2=O)C(=O)N1 (stereo partly drawn) [Compound 312, (3R)-N-[3-(5-{4-[(4R)-4-({4-[2-(2,6-dioxopiperidin-3-yl)-1-oxo-2,3-dihydro-1H-isoindol-5-yl]piperidin-1-yl}methyl)-2-oxopiperidin-1-yl]phenyl}-1H-pyrrolo[2,3-b]pyridine-3-carbonyl)-2,4-difluorophenyl]-3-fluoropyrrolidine-1-sulfonamide] | – | –
5 to 50 nM | 1 to 10 nM | > 70% | 35 to 70% | O=C1CCC(N2Cc3cc(N4CCC(CCCN5CCN(c6ccc(-c7cnc8[nH]cc(C(=O)c9c(F)ccc(NS(=O)(=O)N%10CC[C@@H](F)C%10)c9F)c8c7)cc6)CC5)CC4)ccc3C2=O)C(=O)N1 (stereo partly drawn) [Compound 137, (3R)-N-[3-(5-{4-[4-(3-{1-[2-(2,6-dioxopiperidin-3-yl)-1-oxo-2,3-dihydro-1H-isoindol-5-yl]piperidin-4-yl}propyl)piperazin-1-yl]phenyl}-1H-pyrrolo[2,3-b]pyridine-3-carbonyl)-2,4-difluorophenyl]-3-fluoropyrrolidine-1-sulfonamide] | – | –
5 to 50 nM | 1 to 10 nM | > 70% | 35 to 70% | O=C1CC[C@@H](N2Cc3cc(C4CCN(CC5CCN(c6ccc(-c7cnc8[nH]cc(C(=O)c9c(F)ccc(NS(=O)(=O)N%10CCC(F)(F)C%10)c9F)c8c7)cc6)CC5)CC4)ccc3C2=O)C(=O)N1 [Compound 233, N-{3-[5-(4-{4-[(4-{2-[(3R)-2,6-dioxopiperidin-3-yl]-1-oxo-2,3-dihydro-1H-isoindol-5-yl}piperidin-1-yl)methyl]piperidin-1-yl}phenyl)-1H-pyrrolo[2,3-b]pyridine-3-carbonyl]-2,4-difluorophenyl}-3,3-difluoropyrrolidine-1-sulfonamide] | – | –
5 to 50 nM | 1 to 10 nM | > 70% | 35 to 70% | CCCS(=O)(=O)Nc1ccc(F)c(C(=O)c2c[nH]c3ncc(-c4ccc(N5CCN(CC6CCN(c7ccc8c(c7)CN(C7CCC(=O)NC7=O)C8=O)CC6)CC5)cc4)cc23)c1F (stereo not drawn) [Compound 244, N-[3-(5-{4-[4-({1-[2-(2,6-dioxopiperidin-3-yl)-1-oxo-2,3-dihydro-1H-isoindol-5-yl]piperidin-4-yl}methyl)piperazin-1-yl]phenyl}-1H-pyrrolo[2,3-b]pyridine-3-carbonyl)-2,4-difluorophenyl]propane-1-sulfonamide] | – | –
